Activity calls are given as the source filed them. The calls are words filed in the database; no cut-off is given here.
Columns and labels:
[1] = target: Proteinase-activated receptor 2 (Homo sapiens) (UniProt P55085); experiment: Inhibition of PAR2-mediated TNFalpha and SLIGKV-NH2-induced interleukin-8 production in normal human epidermal keratinocytes at 10 uM by ELISA
[2] = target: Proteinase-activated receptor 2 (Homo sapiens) (UniProt P55085); experiment: Inhibition of PAR2-mediated SLIGKV-NH2-induced interleukin-8 production in normal human epidermal keratinocytes at 5 uM after 24 hrs by ELISA
[3] = Cytotoxicity against normal human epidermal keratinocytes at 100 uM after 72 hrs by MTT assay; format: cell-based; details: keratinocyte
[4] = Cytotoxicity against normal human epidermal keratinocytes at 5 uM after 72 hrs by MTT assay; format: cell-based; details: keratinocyte
[5] = target: Proteinase-activated receptor 2 (Homo sapiens) (UniProt P55085); experiment: Inhibition of PAR2-mediated SLIGKV-NH2-induced interleukin-8 production in normal human epidermal keratinocytes at 10 uM after 24 hrs by ELISA
[6] = Cytotoxicity against normal human epidermal keratinocytes at 10 uM after 72 hrs by MTT assay; format: cell-based; details: keratinocyte
[7] = target: Proteinase-activated receptor 2 (Homo sapiens) (UniProt P55085); experiment: Inhibition of PAR2 gene expression in normal human epidermal keratinocytes at 10 uM after 48 hrs by quantitative RT-PCR
[8] = target: Proteinase-activated receptor 2 (Homo sapiens) (UniProt P55085); experiment: Inhibition of PAR2-mediated IL1-beta and SLIGKV-NH2-induced interleukin-8 production in normal human epidermal keratinocytes at 10 uM by ELISA

Sequence of Proteinase-activated receptor 2 (Homo sapiens) (P55085 whole entry): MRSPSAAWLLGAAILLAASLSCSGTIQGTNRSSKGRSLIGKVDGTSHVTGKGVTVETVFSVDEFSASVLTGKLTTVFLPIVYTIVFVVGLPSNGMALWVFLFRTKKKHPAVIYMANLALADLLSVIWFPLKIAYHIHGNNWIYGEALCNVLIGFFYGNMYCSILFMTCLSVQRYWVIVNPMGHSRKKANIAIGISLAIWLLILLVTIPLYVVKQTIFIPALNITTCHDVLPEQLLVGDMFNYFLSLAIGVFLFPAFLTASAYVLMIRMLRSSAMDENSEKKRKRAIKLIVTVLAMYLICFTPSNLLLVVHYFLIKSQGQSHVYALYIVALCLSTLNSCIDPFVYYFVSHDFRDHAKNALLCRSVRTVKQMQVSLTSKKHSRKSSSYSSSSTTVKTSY

Activity [1] | Activity [2] | Activity [5] | Activity [7] | Activity [8] | Compound | Activity [3] | Activity [4] | Activity [6]
inactive | – | – | – | – | CC[C@H]1OC(=O)[C@H](C)[C@@H](O[C@H]2C[C@@](C)(OC)[C@@H](O)[C@H](C)O2)[C@H](C)[C@@H](O[C@@H]2O[C@H](C)C[C@H](N(C)C)[C@H]2O)[C@](C)(O)C[C@@H](C)/C(=N\OCOCCOC)[C@H](C)[C@@H](O)[C@]1(C)O | – | – | –
inactive | – | – | – | – | CC[C@H]1OC(=O)[C@H](C)[C@@H](O[C@H]2C[C@@](C)(OC)[C@@H](O)[C@H](C)O2)[C@H](C)[C@@H](O[C@@H]2O[C@H](C)C[C@H](N(C)C)[C@H]2O)[C@](C)(OC)C[C@@H](C)C(=O)[C@H](C)[C@@H](O)[C@]1(C)O | – | – | –
Active | Active | Active | inactive | inactive | CN(C)[C@@H]1C(O)=C(C(N)=O)C(=O)[C@@]2(O)C(O)=C3C(=O)c4c(O)cccc4[C@@](C)(O)[C@H]3C[C@@H]12 [TETRACYCLINE] | Toxic | Non-toxic | Non-toxic
Active | Active | Active | inactive | Active | CN(C)c1ccc(O)c2c1C[C@H]1C[C@H]3[C@H](N(C)C)C(O)=C(C(N)=O)C(=O)[C@@]3(O)C(O)=C1C2=O [MINOCYCLINE] | Toxic | Non-toxic | Non-toxic
Active | Active | Active | inactive | Active | C[C@H]1c2cccc(O)c2C(=O)C2=C(O)[C@]3(O)C(=O)C(C(N)=O)=C(O)[C@@H](N(C)C)[C@@H]3[C@@H](O)[C@@H]21.O [DOXYCYCLINE] | Toxic | Non-toxic | Non-toxic
